Results published in patent US6906239B2, “Plant preparations” (priority 2002, dated 2005).

What was measured:
[1] = system: Soil microorganisms; test: In situ soil degradation of bagasse from treated sugar cane (Example 9); details: 10 grams drench at 4 and 2 weeks before harvest, buried in soil six months, scale 9 to 0
Text: (§1) Fertile sandy loam topsoil in a cultivated field that had been used for the sequential cultivation of corn for the prior two years constituted the in situ environment. The field was located in the town Ingleside on the Eastern Shore of Maryland. The tissue burial and recovery work was completed in multiple marked plots.
(§2) Staining intensity ratings were subjectively established on ten-point rating scales and used as qualitative rankings within each individual example. Unless otherwise indicated, staining for lignin present in bagasse was performed by both the phlorgluciol and hypochlorite/sulfite techniques and was rated subjectively on a ten-step scale, from most intense staining (9) to no staining (0). Staining for chitin present in the bagasse was also subjectively rated on a ten-step scale from most intense staining (9) to no staining (0). All staining techniques were performed in triplicate, unless otherwise indicated.
Sugar cane plants were treated four weeks and two weeks before harvest with drench applications of 10 grams of one of the chemicals listed in Table 6, i.e., cinnamic acid, 2,6-difluorocinnamic acid, 3-chlorocinnamic acid or 2-chloro-4-hydroxybenzaldehyde. Approximately, 10 g of extracted bagasse samples were mixed equally with sand, and the mixture placed into a nylon sack and buried approximately 6 inches below the ground. The samples were buried in such a fashion for six months from the March through August time period. All staining was done in quintuplicate.

[2] = system: Soil microorganisms; test: In situ soil degradation of corn stalk from treated corn plants (Example 10); details: two sprays of 20 mM, buried in soil six months, scale 9 to 0
Text: Plants were cultivated in a greenhouse environment and modified precursors and control precursors were applied via a foliar spray. Treated plants were permitted to naturally mature, senesce and dry down. After dry down several centimeter long sections were taken from nodal and from internodal regions at the base of the stalk for further in situ soil treatment. After treatment, thin sections were made, stained and visually inspected. Observations were made with a dissecting or a light microscope.
as §1, §2
Treatment of corn plants included two sprays, both one month after seedling emergence and once at tasseling with a spray application of 20 mM of one of the chemicals listed in Table 7, i.e., cinnamic acid, 2,6-difluorocinnamic acid, 3-chlorocinnamic acid or 2-chloro-4-hydroxybenzaldehyde with a silicone spreader/sticker until runoff. Dried stalk samples were buried in soil, as described above, for six months from the March through August time period. All staining was done in quintuplicate.

[3] = system: white-rot fungus; test: White-rot fungus cultured on bagasse from treated sugar cane, lignin and chitin staining (Examples 5, 6, 8); format: cell-based, Phanerochaete chrysosporium; details: for Staining intensity Chitin / Staining intensity Lignin: fungus cultured three months, scale 9 to 0
Text: (§3) Phanerochaete chrysosporium, a lignin degrading fungus, was maintained on potato dextrose agar (PDA). Lignin degradation studies employed culturing the fungus in a liquid mineral salt medium that contained treated plant materials, such as bagasse from a plant that had been treated with a modified precursor preparation. The bagasse in the medium comprised the sole source of organic carbon for support of fungal growth. One inoculum “loop,” a standard tool used in the preparation and culturing of microbes, was used to inoculate the medium.
as §2
Technique 1: Place sections in a drop of saturated, aqueous phloroglucinol in 20% HCl. Lignin appears as deep red (9) to light purple (1).
Technique 2: Place sections in commercial hypochlorite bleach for five minutes and transfer to a 1% solution of sodium sulfite. Lignin appears as a bright red cherry color (9) that fades to brown (1) in approximately 1 hour.
Technique: Sections are autoclaved in saturated KOH for 10 minutes to convert chitin to chitosan. Washed sections are placed in a few drops of iodine-potassium iodide solution (2 gm KI in 100 ml water and add 0.2 gm I2) in 1% sulfuric acid. Abundant amounts of chitosans appear dark violet (9) and a lower concentration as a light blue stain (1). Care should be exercised since cellulose may also stain under these conditions. For this reason, if necessary, cellulose can be removed by flooding with Schweitzer's reagent (saturated copper hydroxide in ammonium hydroxide) prior to iodine-potassium iodide treatment.
In similar fashion to Example 4, sugar cane plants were treated at four weeks and also at two weeks before harvest, with five grams of the modified precursors described above, by drenching the sugar cane roots. Bagasse samples were then obtained and approximately 10 g used in the following experiment.
In this experiment, white-rot fungus was cultured on the bagasse samples for three months. Specifically, P. chrysosporium was maintained on PDA and then added to a liquid mineral salt medium that contained the treated plant materials, such as treated bagasse. One inoculum “loop,” a standard tool used in the preparation and culturing of microbes, was used to inoculate the bagasse-containing medium. The medium with the bagasse comprised the only sole source of organic carbon for support of fungal growth. After culturing the fungus on the bagasse stored in the liquid medium, the bagasse was collected from the medium and then stained for lignin and chitin.
Sugar cane plants were treated with either 0.5 g, 5 g or 50 g of 2,6-difluorocinnamic acid or 3-cholorcinnamic acid four weeks prior to harvest and also at two weeks prior to harvest. Thus, the total dosage of each modified precursor is either 1 g, 10 g, or 100 g. White-rot fungus was then cultured on the extracted bagasse samples for three months and lignin and chitin staining performed.
Glyphosine (Sigma Aldrich) is commercially available as a sugarcane ripener for use several weeks before harvest. In this example, glyphosine, at one-fourth the label rate (i.e., approximately 4 oz per acre), was added to 3-chlorocinnamic acid during drench treatments of 5 gm, both four weeks and two weeks prior to harvest. The label rate of glyphosine was 16 oz. White-rot fungus was cultured on the bagasse samples for three months according to the methodology described in Example 2.

[4] = system: white-rot fungus; test: White-rot fungus cultured on corn stalk fibrous extract from treated corn (Example 11); format: cell-based, Phanerochaete chrysosporium; details: for Staining intensity Chitin / Staining intensity Lignin: corn stalk, fungus cultured three months, scale 9 to 0
Text: as §3, §2
Glyphosate (Sigma Aldrich) is commercially available as a no-till herbicide for use with corn. In this example glyphosate at the one-fourth the label rate (i.e., approximately 3 oz per acre) was added to 3-chlorocinnamic acid. The label rate of glyphosate was 12 oz per acre. The glyphosate was applied through a spray treatment that included two sprays, both one month after seedling emergence and once at tasseling. The spray application was applied with a silicone spreader/sticker until runoff. White-rot fungus was cultured on potato dextrose agar and then use to inoculate a medium containing the corn stalk fibrous extract as described in Example 2 above. These samples were cultured under appropriate conditions for three months.

[5] = system: White rot fungus; test: White rot fungus cultured on plant samples treated with fungicidal candidates, lignin and chitin staining (Example 12 ii); format: cell-based, Phanerochaete chrysosporium; details: 100 ppm four weeks before harvest, fungus cultured three months, scale 9 to 0
Experimental: as §2
Tulip tree, White Pine and corn plants were treated with fungicidal candidates four weeks before harvest. White rot fungus (Phanerochaete chrysosporium) was then cultured on the plant samples for three months. Staining and quantification of lignin and chitin present in plant materials was performed as described above.

[6] = sugar cane bagasse, 5 g drench at 4 and 2 weeks before harvest
[7] = total dosage 1 gm (0.5 g at 4 and 2 weeks before harvest)
[8] = total dosage 10 gm (5 g at 4 and 2 weeks before harvest)
[9] = total dosage 100 gm (50 g at 4 and 2 weeks before harvest)
[10] = Example 8, 10 gm with Glyphosine at one-fourth the label rate
[11] = Example 8, 10 gm without glyphosine
[12] = two sprays of 20 mM with Glyphosate at one-fourth the label rate
[13] = two sprays of 20 mM, without glyphosate

O=C(O)C=Cc1c(F)cccc1F [2,6-Difluorocinnamic Acid]
Staining intensity Chitin [1]: 4
Staining intensity Lignin [1]: 5
Staining intensity Chitin [2]: 6
Staining intensity Lignin [2]: 5
Staining intensity Chitin [3, 6]: 3
Staining intensity Lignin [3, 6]: 5
Staining intensity Chitin [3, 7]: 5
Staining intensity Lignin [3, 7]: 4
Staining intensity Chitin [3, 8]: 3
Staining intensity Lignin [3, 8]: 6
Staining intensity Chitin [3, 9]: 2
Staining intensity Lignin [3, 9]: 7

O=Cc1ccc(O)cc1Cl [2-Chloro-4-hydroxybenzaldehyde]
Staining intensity Chitin [1]: 3
Staining intensity Lignin [1]: 6
Staining intensity Chitin [2]: 3
Staining intensity Lignin [2]: 6
Staining intensity Chitin [3, 10]: 2
Staining intensity Lignin [3, 10]: 7
Staining intensity Chitin [3, 11]: 3
Staining intensity Lignin [3, 11]: 6
Staining intensity Chitin [3, 6]: 4
Staining intensity Lignin [3, 6]: 3

O=Cc1cc(Br)c(O)c(Br)c1 [3,5-Dibromo-4-hydroxybenzaldehyde]
Staining intensity Chitin [3, 6]: 6
Staining intensity Lignin [3, 6]: 5

O=C(O)C=Cc1cccc(Cl)c1 [3-Cholorcinnamic Acid, 3-Cholorcinnamic acid]
Staining intensity Chitin [1]: 3
Staining intensity Lignin [1]: 6
Staining intensity Chitin [2]: 4
Staining intensity Lignin [2]: 7
Staining intensity Chitin [4, 12]: 2
Staining intensity Lignin [4, 12]: 7
Staining intensity Chitin [4, 13]: 3
Staining intensity Lignin [4, 13]: 6
Staining intensity Chitin [3, 10]: 2
Staining intensity Lignin [3, 10]: 7
Staining intensity Chitin [3, 11]: 3
Staining intensity Lignin [3, 11]: 5
Staining intensity Chitin [3, 6]: 7
Staining intensity Lignin [3, 6]: 5
Staining intensity Chitin [3, 7]: 4
Staining intensity Lignin [3, 7]: 4
Staining intensity Chitin [3, 8]: 2
Staining intensity Lignin [3, 8]: 6
Staining intensity Chitin [3, 9]: 1
Staining intensity Lignin [3, 9]: 7

COC(=O)Nc1nc2ccccc2[nH]1 [Carbendazim, methyl-2-benzimidazole carbamate]
Intensity of Chitin Stain ([5]; Corn plant): 2
Intensity of Lignin Stain ([5]; Corn plant): 8
Intensity of Chitin Stain ([5]; Tulip tree): 1
Intensity of Lignin Stain ([5]; Tulip tree): 8
Intensity of Chitin Stain ([5]; White Pine tree): 2
Intensity of Lignin Stain ([5]; White Pine tree): 7

O=C(O)C=Cc1ccccc1 [Cinnamic Acid, reference compound]
Staining intensity Chitin [1]: 8
Staining intensity Lignin [1]: 1
Staining intensity Chitin [2]: 9
Staining intensity Lignin [2]: 0-1
Staining intensity Chitin [3, 6]: 9
Staining intensity Lignin [3, 6]: 1

O=C(O)CN(CP(=O)(O)O)CP(=O)(O)O [Glyphosine, reference compound]
Effect on recalcitrance of lignin to biodegradation by white-rot fungi conferred by halogen-substituted precursors ([3]; glyphosine at one fourth the label rate added to the modified precursor, sugar cane): increases the effectiveness

CCCC1COC(Cn2cncn2)(c2ccc(Cl)cc2Cl)O1 (centres unmarked) [Propiconazole, 1-[[2-(2,4-dichlorophenyl)-4-propyl-1,3-dioxolan-2-yl]methyl]-1H-1,2,4-triazole]
Intensity of Chitin Stain ([5]; Corn plant): 1
Intensity of Lignin Stain ([5]; Corn plant): 8
Intensity of Chitin Stain ([5]; Tulip tree): 2
Intensity of Lignin Stain ([5]; Tulip tree): 7
Intensity of Chitin Stain ([5]; White Pine tree): 1
Intensity of Lignin Stain ([5]; White Pine tree): 8

c1ccc2[nH]c(-c3cscn3)nc2c1 [Thiabendazole, 2-(4-thiazolyl)benzimidazole]
Intensity of Chitin Stain ([5]; Corn plant): 1
Intensity of Lignin Stain ([5]; Corn plant): 9
Intensity of Chitin Stain ([5]; Tulip tree): 1
Intensity of Lignin Stain ([5]; Tulip tree): 9
Intensity of Chitin Stain ([5]; White Pine tree): 2
Intensity of Lignin Stain ([5]; White Pine tree): 8

O=C(O)C(F)=Cc1ccccc1 [alpha-Fluorocinnamic Acid]
Staining intensity Chitin [3, 6]: 6

O=C(O)CNCP(=O)(O)O [glyphosate, Glyphosate, reference compound]
Effect on effectiveness of halogen-substituted precursor molecules in reducing lignin biodegradation by white-rot fungi ([4]; glyphosate at one-fourth the label rate added to the spray, corn): increases the effectiveness
